# Source: patent US20110214196A1, “DEVELOPMENT OF HERBICIDE-RESISTANT GRASS SPECIES” (University of Georgia Research Foundation, priority 2008, published 2011)
# Tests used:
# [1] = system: callus tissue generated from the variety 'Seaspray'; test: Callus growth dose response to sethoxydim; format: cell-based, seashore paspalum (Paspalum vaginatum); conditions: growth averaged over three consecutive 3-week subcultures
# Description: The dose response of paspalum tissue in culture to sethoxydim rate was determined using callus tissue generated from the variety ‘Seaspray’ as a model cultivar. Effect of sethoxydim concentration on callus growth was determined by placing callus tissue from ‘Seaspray’ on MS/B5 medium (Murashige and Skoog. 1962. supra; Gamborg et al. 1968. supra) containing 2 mg/L 2-4,D and one of eight concentrations of sethoxydim. Herbicide rates were replicated 6 times and included concentrations of 0, 2.5, 5, 7.5, 10, 25, 50, and 100 μM sethoxydim. Sethoxydim was diluted in methanol and added after the autoclaved medium was cooled to approximately 55° C. (in order to prevent loss of activity from heat degradation). The medium was protected from photo-degradation by wrapping containers in aluminum foil prior to storage.
# To measure callus growth, 0.5 gram of callus tissue was weighed, separated into nine equal pieces and placed in a 3×3 pattern on the solid medium of each plate. Six replicate plates for each of the eight sethoxydim concentrations was distributed on a rack in a growth room in a completely randomized design. At 21 days after plating, the tissue from each plate was weighed and recorded. For subculture, 0.5 gram from each plate was obtained for the next growth period. This process was continued for nine weeks, providing three growth measurements for each plate. […]
# [2] = system: sethoxydim-resistant Line A; test: Whole plant greenhouse dose-response, Segment herbicide (Example 8); format: in vivo, seashore paspalum (Paspalum vaginatum)
# Description: (§1) Sethoxydim-resistant plants regenerated from a sethoxydim-resistant cell line, Line A, were tested for resistance at the whole plant level in a dose-response experiment conducted in a greenhouse. In this experiment, Line A was compared to two herbicide-susceptible controls; the original parent line, Mauna Kea (PT); and a Mauna Kea line regenerated from tissue culture (TTC). Plants were transplanted to Cone-tainers™ measuring 4×14 cm and tapering to 1 cm (Stuewe and Sons Inc., Corvallis, Oreg.) containing a 1:1 mix of Fafard® 3B mix and sand and placed on benches under sodium lights in a greenhouse with a 16 hour photoperiod maintained at 27/32° C. day/night for two weeks prior to treatment applications. Each of the three genotypes, Line A, PT and TC were treated with 0, 50, 100, 200, 400, 800, 1600, and 3200 g ai ha^−1 rates of sethoxydim using Segment™ herbicide (BASF Corp., Florham Park, N.J.). All herbicide rates were applied at a spray volume of 1871 ha^−1 in an experimental spray chamber, and after drying, returned to the greenhouse bench and maintained under the conditions described above. Visual estimates of crop injury were recorded at 7, 14, 21, and 28 days after treatment (DAT) using a scale of 0 to 100, where 0 equals no injury and 100 equals complete death. At 42 days after treatment, the above ground portion of all plants was harvested, dried for 48 hours at a temperature of 50° C., and weighed to determine plant dry weight. Treatments were arranged in a randomized complete block design. Only two replications of TCC were possible due to limited plant materials; otherwise four replications were used for the other two genotypes (PT and Line A). Data were first analyzed using a two-way analysis of variance and subsequently analyzed within herbicide rate. Differences among genotype means at each herbicide rate were determined using Fisher's Least Significant Difference (LSD).
# [3] = system: original parent line, Mauna Kea (PT); test: as above; format: in vivo, seashore paspalum (Paspalum vaginatum)
# Description: as §1
compound,measurement,setting,value
"CCC/C(=N\OCC)C1=C(O)CC(CC(C)SCC)CC1=O (stereo not shown) [sethoxydim, 2-[1-(ethoxyimino)-butyl]-5-[2-(ethylthio)propyl]-3-hydroxy-2-cylohexen-1-one]",lowest herbicide rate to totally inhibit callus growth,[1],7.5 µM
same,LD50,[2],> 3200 g ai ha^1
same,Plant Injury,"[2]; 50 g a.i. ha^−1, 7 DAT",2.9a %
same,Plant Injury,"[2]; 50 g a.i. ha^−1, 14 DAT",0.0b %
same,Plant Injury,"[2]; 50 g a.i. ha^−1, 21 DAT",1.2a %
same,Plant Injury,"[2]; 50 g a.i. ha^−1, 28 DAT",0.0a %
same,Dry Weight,"[2]; 50 g a.i. ha^−1, 42 DAT",1.7a grams
same,Plant Injury,"[2]; 100 g a.i. ha^−1, 7 DAT",0.8a %
same,Plant Injury,"[2]; 100 g a.i. ha^−1, 14 DAT",1.2a %
same,Plant Injury,"[2]; 100 g a.i. ha^−1, 21 DAT",3.8a %
same,Plant Injury,"[2]; 100 g a.i. ha^−1, 28 DAT",2.5a %
same,Dry Weight,"[2]; 100 g a.i. ha^−1, 42 DAT",2.0a grams
same,Plant Injury,"[2]; 200 g a.i. ha^−1, 7 DAT",1.7a %
same,Plant Injury,"[2]; 200 g a.i. ha^−1, 14 DAT",0.0a %
same,Plant Injury,"[2]; 200 g a.i. ha^−1, 21 DAT",0.0a %
same,Plant Injury,"[2]; 200 g a.i. ha^−1, 28 DAT",0.0a %
same,Dry Weight,"[2]; 200 g a.i. ha^−1, 42 DAT",1.9a grams
same,Plant Injury,"[2]; 400 g a.i. ha^−1, 7 DAT",3.8a %
same,Plant Injury,"[2]; 400 g a.i. ha^−1, 14 DAT",0.0a %
same,Plant Injury,"[2]; 400 g a.i. ha^−1, 21 DAT",2.5a %
same,Plant Injury,"[2]; 400 g a.i. ha^−1, 28 DAT",0.0a %
same,Dry Weight,"[2]; 400 g a.i. ha^−1, 42 DAT",2.0a grams
same,Plant Injury,"[2]; 800 g a.i. ha^−1, 7 DAT",1.2a %
same,Plant Injury,"[2]; 800 g a.i. ha^−1, 14 DAT",1.2a %
same,Plant Injury,"[2]; 800 g a.i. ha^−1, 21 DAT",3.8a %
same,Plant Injury,"[2]; 800 g a.i. ha^−1, 28 DAT",1.2a %
same,Dry Weight,"[2]; 800 g a.i. ha^−1, 42 DAT",2.0a grams
same,Plant Injury,"[2]; 1600 g a.i. ha^−1, 7 DAT",4.3a %
same,Plant Injury,"[2]; 1600 g a.i. ha^−1, 14 DAT",0.0a %
same,Plant Injury,"[2]; 1600 g a.i. ha^−1, 21 DAT",3.8a %
same,Plant Injury,"[2]; 1600 g a.i. ha^−1, 28 DAT",1.2a %
same,Dry Weight,"[2]; 1600 g a.i. ha^−1, 42 DAT",1.5a grams
same,Plant Injury,"[2]; 3200 g a.i. ha^−1, 7 DAT",8.3a %
same,Plant Injury,"[2]; 3200 g a.i. ha^−1, 14 DAT",7.5a %
same,Plant Injury,"[2]; 3200 g a.i. ha^−1, 21 DAT",5.5a %
same,Plant Injury,"[2]; 3200 g a.i. ha^−1, 28 DAT",4.2b %
same,Dry Weight,"[2]; 3200 g a.i. ha^−1, 42 DAT",1.6a grams
same,maximum injury score observed,[2]; at 3200 g ai ha^−1,7.5%
same,LD50,[3],189 g ai ha^1
same,Plant Injury,"[3]; 50 g a.i. ha^−1, 7 DAT",5.2a %
same,Plant Injury,"[3]; 50 g a.i. ha^−1, 14 DAT",6.2b %
same,Plant Injury,"[3]; 50 g a.i. ha^−1, 21 DAT",5.0a %
same,Plant Injury,"[3]; 50 g a.i. ha^−1, 28 DAT",1.2a %
same,Dry Weight,"[3]; 50 g a.i. ha^−1, 42 DAT",1.6a grams
same,Plant Injury,"[3]; 100 g a.i. ha^−1, 7 DAT",7.9b %
same,Plant Injury,"[3]; 100 g a.i. ha^−1, 14 DAT",22.5b %
same,Plant Injury,"[3]; 100 g a.i. ha^−1, 21 DAT",13.8a %
same,Plant Injury,"[3]; 100 g a.i. ha^−1, 28 DAT",6.2a %
same,Dry Weight,"[3]; 100 g a.i. ha^−1, 42 DAT",1.3b grams
same,Plant Injury,"[3]; 200 g a.i. ha^−1, 7 DAT",20.8b %
same,Plant Injury,"[3]; 200 g a.i. ha^−1, 14 DAT",55.0b %
same,Plant Injury,"[3]; 200 g a.i. ha^−1, 21 DAT",52.5b %
same,Plant Injury,"[3]; 200 g a.i. ha^−1, 28 DAT",43.8b %
same,Dry Weight,"[3]; 200 g a.i. ha^−1, 42 DAT",0.8b grams
same,Plant Injury,"[3]; 400 g a.i. ha^−1, 7 DAT",30.8b %
same,Plant Injury,"[3]; 400 g a.i. ha^−1, 14 DAT",67.5b %
same,Plant Injury,"[3]; 400 g a.i. ha^−1, 21 DAT",67.5b %
same,Plant Injury,"[3]; 400 g a.i. ha^−1, 28 DAT",72.5b %
same,Dry Weight,"[3]; 400 g a.i. ha^−1, 42 DAT",0.2b grams
same,Plant Injury,"[3]; 800 g a.i. ha^−1, 7 DAT",35.0b %
same,Plant Injury,"[3]; 800 g a.i. ha^−1, 14 DAT",85.0b %
same,Plant Injury,"[3]; 800 g a.i. ha^−1, 21 DAT",85.0b %
same,Plant Injury,"[3]; 800 g a.i. ha^−1, 28 DAT",88.8b %
same,Dry Weight,"[3]; 800 g a.i. ha^−1, 42 DAT",0.3b grams
same,Plant Injury,"[3]; 1600 g a.i. ha^−1, 7 DAT",40.8b %
same,Plant Injury,"[3]; 1600 g a.i. ha^−1, 14 DAT",90.0b %
same,Plant Injury,"[3]; 1600 g a.i. ha^−1, 21 DAT",92.5b %
same,Plant Injury,"[3]; 1600 g a.i. ha^−1, 28 DAT",92.5b %
same,Dry Weight,"[3]; 1600 g a.i. ha^−1, 42 DAT",0.2b grams
same,Plant Injury,"[3]; 3200 g a.i. ha^−1, 7 DAT",37.9b %
same,Plant Injury,"[3]; 3200 g a.i. ha^−1, 14 DAT",100.0b %
same,Plant Injury,"[3]; 3200 g a.i. ha^−1, 21 DAT",100.0b %
same,Plant Injury,"[3]; 3200 g a.i. ha^−1, 28 DAT",100.0b %
same,Dry Weight,"[3]; 3200 g a.i. ha^−1, 42 DAT",0.1b grams
same,injury score,[3]; at rates equal to or greater than 800 g ai ha^−1,≥ 80%
same,injury score,"[3]; at rates of 200 g ai ha^−1, scale of 0 to 100",≥ 30
